Several values for one entry are separate records, joined by “and”; a condition that tells them apart may be missing. Equal values may be shown once.
Molecular target: MAPK14 (human) (UniProt Q16539)
Experiment: Inhibition of LPS Stimulated TNF Production by U937 Cells
Details: for inhibition: concentration not given here

Sequence of MAPK14 (human) (Q16539 whole entry, looked up): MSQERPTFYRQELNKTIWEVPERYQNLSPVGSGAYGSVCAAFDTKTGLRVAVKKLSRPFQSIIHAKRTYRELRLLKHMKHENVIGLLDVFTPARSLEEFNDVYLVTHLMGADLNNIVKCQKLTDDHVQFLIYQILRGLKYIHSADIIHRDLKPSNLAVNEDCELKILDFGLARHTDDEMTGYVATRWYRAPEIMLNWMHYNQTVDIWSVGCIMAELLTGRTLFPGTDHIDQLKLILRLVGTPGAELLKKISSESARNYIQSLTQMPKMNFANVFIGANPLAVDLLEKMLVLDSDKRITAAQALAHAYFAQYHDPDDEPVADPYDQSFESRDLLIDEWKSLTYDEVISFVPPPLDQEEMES

SMILES | inhibition [%] | IC50
C[C@@H](NS(=O)(=O)c1ccc(CNC(=O)c2ccccc2)s1)c1[nH]nc(-c2ccc(F)cc2)c1-c1ccncc1 | 88 | 
C[C@@H](NC(=O)c1cc(C(F)(F)F)ccc1F)c1[nH]nc(-c2ccc(F)cc2)c1-c1ccncc1 | 43 | 
CNC(=O)CC[C@H](NC(=O)c1ccncc1)c1[nH]nc(-c2ccc(F)cc2)c1-c1ccncc1 | 8 | 
CNC(=O)CC[C@H](NC(=O)c1ccc(C)cc1)c1[nH]nc(-c2ccc(F)cc2)c1-c1ccncc1 |  | > 1000 nM
CN(C)CCn1cc(-c2ccnc(F)c2)c(-c2ccc(F)cc2)n1 |  | 4210 nM
COc1cc(NC(=O)NCc2[nH]nc(-c3ccc(F)cc3)c2-c2ccncc2)cc(OC)c1OC | 29 | 
COc1ccc(CC(=O)N[C@@H](C)c2[nH]nc(-c3ccc(F)cc3)c2-c2ccncc2)cc1 | 22 | 
C[C@H](NC(=O)c1c(F)cccc1C(F)(F)F)c1[nH]nc(-c2ccc(F)cc2)c1-c1ccncc1 | 59 | 
Cc1cnccc1-c1cn(C)nc1-c1ccc(F)cc1 |  | 757 nM
Cn1nc(-c2ccc(F)cc2)c(-c2ccncc2)c1C(O)c1ccccc1 (configuration not stated) |  | 349 nM
C[C@H](NC(=O)c1ccno1)c1[nH]nc(-c2ccc(F)cc2)c1-c1ccncc1 | 28 | 
C[C@H](NC(=O)N[C@H](C)c1ccccc1)c1[nH]nc(-c2ccc(F)cc2)c1-c1ccncc1 | 41 | 
CC(=O)NCCNC(=O)NCCCc1[nH]nc(-c2ccc(F)cc2)c1-c1ccncc1 | 9 | 
O=C(c1ccc(Cl)cc1)N1CCC(c2[nH]nc(-c3ccc(F)cc3)c2-c2ccncc2)CC1 |  | 570 nM
C[C@H](NC(=O)c1ccc(C(F)(F)F)cc1)c1[nH]nc(-c2ccc(F)cc2)c1-c1ccncc1 | 29 | 
C[C@@H](NC(=O)N1CCOCC1)c1[nH]nc(-c2ccc(F)cc2)c1-c1ccncc1 | 30 | 
Cn1cc(-c2ccncc2)c(-c2ccc(C(F)(F)F)cc2)n1 |  | 1200 nM
C[C@@H](NC(=O)c1cc(Cl)cc(Cl)c1)c1[nH]nc(-c2ccc(F)cc2)c1-c1ccncc1 | 11 | 
Cn1cc(-c2ccnc(CCc3ccc(F)cc3)c2)c(-c2ccc(F)cc2)n1 |  | 327 nM
COc1ccc(CC(=O)N[C@H](Cc2ccccc2)c2[nH]nc(-c3ccc(F)cc3)c2-c2ccncc2)cc1OC | 21 | > 1000 nM
Cc1ccc(-c2[nH]nc(C)c2-c2ccncc2)c(C)c1 |  | 1050 nM
CCCOC(=O)N[C@@H](C)c1[nH]nc(-c2ccc(F)cc2)c1-c1ccncc1 | 61 | 

SMILES | inhibition [%] | IC50
CN(C)c1n[nH]c(-c2ccc(F)cc2)c1-c1ccncc1 |  | 484 nM
CCS(=O)(=O)N1CCC(c2[nH]nc(-c3ccc(F)cc3)c2-c2ccncc2)CC1 |  | 250 nM
O=S(=O)(c1ccc(-c2ccon2)s1)N1CCC(c2[nH]nc(-c3ccc(F)cc3)c2-c2ccncc2)CC1 | 3 | 
COc1ccc(NC(=O)N[C@H](C)c2[nH]nc(-c3ccc(F)cc3)c2-c2ccncc2)c(OC)c1 | 40 | 
CC(C)C(=O)N[C@@H](C)c1[nH]nc(-c2ccc(F)cc2)c1-c1ccncc1 |  | 1010 nM
Cc1c(-c2ccncc2)c(-c2ccc(F)cc2)nn1CC(=O)NCCCN1CCN(C)CC1 | 30 | 
O=C(N[C@H](Cc1ccccc1)c1[nH]nc(-c2ccc(F)cc2)c1-c1ccncc1)c1cccc(Br)c1 |  | > 1000 nM
C=CCOC(=O)N[C@H](C)c1[nH]nc(-c2ccc(F)cc2)c1-c1ccncc1 |  | 660 nM
C[C@@H](NC(=O)N(C)C)c1[nH]nc(-c2ccc(F)cc2)c1-c1ccncc1 | 27 | 
CCN(CC)C(=O)N[C@@H](C)c1[nH]nc(-c2ccc(F)cc2)c1-c1ccncc1 | 63 | 
C[C@H](NS(=O)(=O)c1ccc(-c2ccccc2)cc1)c1[nH]nc(-c2ccc(F)cc2)c1-c1ccncc1 | 91 | 
C[C@@H](NC(=O)c1cccnc1)c1[nH]nc(-c2ccc(F)cc2)c1-c1ccncc1 | 36 | 
O=C(NCc1[nH]nc(-c2ccc(F)cc2)c1-c1ccncc1)Nc1ccccc1-c1ccccc1 | 2 | 
C[C@H](NC(=O)c1cccc(C(F)(F)F)c1)c1[nH]nc(-c2ccc(F)cc2)c1-c1ccncc1 | 32 | 
OCCn1cc(-c2ccnc(NCc3ccc(F)cc3)c2)c(-c2ccc(F)cc2)n1 |  | 140 nM and 800 nM
CN(C)CCn1cc(-c2ccnc(CCc3ccc(F)cc3)c2)c(-c2ccc(F)cc2)n1 |  | > 10000 nM
Cc1c(C)c(S(=O)(=O)N[C@H](C)c2[nH]nc(-c3ccc(F)cc3)c2-c2ccncc2)c(C)c2c1OC(C)(C)CC2 | 68 | 
COc1cccc(C(=O)N[C@H](Cc2ccccc2)c2[nH]nc(-c3ccc(F)cc3)c2-c2ccncc2)c1 | 38 | 
O=C(N[C@H](Cc1ccccc1)c1[nH]nc(-c2ccc(F)cc2)c1-c1ccncc1)[C@@H]1CCCN1 | 11 | 
CCOC(=O)CCCC(=O)NCc1[nH]nc(-c2ccc(F)cc2)c1-c1ccncc1 | 22 | 
C[C@@H](NC(=O)c1cc2ccccc2s1)c1[nH]nc(-c2ccc(F)cc2)c1-c1ccncc1 | 16 | 
O=S(=O)(c1ccc(Cl)cc1)N1CCC(c2[nH]nc(-c3ccc(F)cc3)c2-c2ccncc2)CC1 | 25 | 

More lines, now with the values ahead:

inhibition [%] | IC50 | SMILES
35 |  | C[C@H](NC(=O)c1c(Cl)cccc1Cl)c1[nH]nc(-c2ccc(F)cc2)c1-c1ccncc1
 | 10000 nM | COc1ccc(CC(=O)NCc2[nH]nc(-c3ccc(F)cc3)c2-c2ccncc2)cc1OC
 | 77 nM | Fc1ccc(-c2[nH]nc(-c3ccccc3)c2-c2ccncc2)cc1
 | 3950 nM | O=C(NCc1[nH]nc(-c2ccc(F)cc2)c1-c1ccncc1)c1ccccc1C(F)(F)F
79 |  | C[C@H](NS(=O)(=O)c1cc(Cl)c(Cl)s1)c1[nH]nc(-c2ccc(F)cc2)c1-c1ccncc1
90 |  | C[C@H](NS(=O)(=O)c1ccc(Cl)c(Cl)c1)c1[nH]nc(-c2ccc(F)cc2)c1-c1ccncc1
21 |  | O=S(=O)(NCCc1[nH]nc(-c2ccc(F)cc2)c1-c1ccncc1)c1cccc(Cl)c1Cl
36 |  | O=C(NCc1[nH]nc(-c2ccc(F)cc2)c1-c1ccncc1)c1cc(F)c(F)cc1F
 | 1700 nM | C[C@H](NS(C)(=O)=O)c1[nH]nc(-c2ccc(F)cc2)c1-c1ccncc1
83 |  | C[C@@H](NS(=O)(=O)c1cccc(Cl)c1Cl)c1[nH]nc(-c2ccc(F)cc2)c1-c1ccncc1
 | 50 nM | C[C@@H](NS(=O)(=O)Cc1ccccc1)c1[nH]nc(-c2ccc(F)cc2)c1-c1ccncc1
58 |  | C[C@@H](NS(=O)(=O)c1cccc2ccccc12)c1[nH]nc(-c2ccc(F)cc2)c1-c1ccncc1
39 |  | Cc1ccc(S(=O)(=O)N[C@H](C)c2[nH]nc(-c3ccc(F)cc3)c2-c2ccncc2)cc1
64 |  | CC(=O)Nc1ccc(S(=O)(=O)N[C@H](C)c2[nH]nc(-c3ccc(F)cc3)c2-c2ccncc2)cc1
78 |  | C[C@H](NS(=O)(=O)c1cccc(Cl)c1Cl)c1[nH]nc(-c2ccc(F)cc2)c1-c1ccncc1
 | > 1000 nM | CS(=O)(=O)c1ccc(CNC(=O)NCCCc2[nH]nc(-c3ccc(F)cc3)c2-c2ccncc2)cc1
29 |  | O=C(NCc1[nH]nc(-c2ccc(F)cc2)c1-c1ccncc1)c1cccc(C(F)(F)F)c1F
80 |  | CC(C)c1ccc(S(=O)(=O)N[C@H](C)c2[nH]nc(-c3ccc(F)cc3)c2-c2ccncc2)cc1
72 |  | Cc1ccc(F)cc1S(=O)(=O)N[C@@H](C)c1[nH]nc(-c2ccc(F)cc2)c1-c1ccncc1
40 |  | COc1ccc(OC)c(S(=O)(=O)N[C@@H](C)c2[nH]nc(-c3ccc(F)cc3)c2-c2ccncc2)c1
10 |  | COc1ccc(S(=O)(=O)NCc2[nH]nc(-c3ccc(F)cc3)c2-c2ccncc2)c([N+](=O)[O-])c1
54 |  | C[C@@H](NS(=O)(=O)c1ccccc1)c1[nH]nc(-c2ccc(F)cc2)c1-c1ccncc1
81 |  | C[C@H](NS(=O)(=O)c1ccccc1Br)c1[nH]nc(-c2ccc(F)cc2)c1-c1ccncc1

inhibition [%] | IC50 | SMILES
 | > 1000 nM | O=C(NCCc1[nH]nc(-c2ccc(F)cc2)c1-c1ccncc1)c1cc(Cl)cc(Cl)c1
43 |  | C[C@@H](NC(=O)c1cccc(Cl)c1Cl)c1[nH]nc(-c2ccc(F)cc2)c1-c1ccncc1
39 | 2710 nM | O=C(NCCc1[nH]nc(-c2ccc(F)cc2)c1-c1ccncc1)Nc1ccc(F)cc1
98 |  | C[C@@H](NS(=O)(=O)c1ccc(F)c(Cl)c1)c1[nH]nc(-c2ccc(F)cc2)c1-c1ccncc1
55 |  | O=C(NCc1[nH]nc(-c2ccc(F)cc2)c1-c1ccncc1)c1ccccc1Cl
48 |  | O=C(NCc1[nH]nc(-c2ccc(F)cc2)c1-c1ccncc1)c1c(F)cccc1F
40 |  | O=S(=O)(NCc1[nH]nc(-c2ccc(F)cc2)c1-c1ccncc1)c1ccc(F)cc1Cl
58 |  | O=S(=O)(NCc1[nH]nc(-c2ccc(F)cc2)c1-c1ccncc1)c1cc(S(=O)(=O)c2ccccc2)cs1
93 |  | Cc1ccc(C)c(S(=O)(=O)N[C@H](C)c2[nH]nc(-c3ccc(F)cc3)c2-c2ccncc2)c1
26 | 1010 nM | O=C(NCc1[nH]nc(-c2ccc(F)cc2)c1-c1ccncc1)c1ccc(F)c(F)c1
 | 210 nM | O=S(=O)(Cc1ccccc1)NCc1[nH]nc(-c2ccc(F)cc2)c1-c1ccncc1
22 |  | O=C(NCc1[nH]nc(-c2ccc(F)cc2)c1-c1ccncc1)c1ccc(F)c(C(F)(F)F)c1
21 |  | O=C(CCc1ccccc1)NCc1[nH]nc(-c2ccc(F)cc2)c1-c1ccncc1
75 |  | O=S(=O)(NCc1[nH]nc(-c2ccc(F)cc2)c1-c1ccncc1)c1cccc(C(F)(F)F)c1
24 |  | O=S(=O)(NCc1[nH]nc(-c2ccc(F)cc2)c1-c1ccncc1)c1cccc2cnccc12
76 |  | COc1ccc(C)cc1S(=O)(=O)N[C@@H](C)c1[nH]nc(-c2ccc(F)cc2)c1-c1ccncc1
21 |  | O=C(NCc1[nH]nc(-c2ccc(F)cc2)c1-c1ccncc1)N[C@@H]1C[C@@H]1c1ccccc1
 | 5000 nM | CC(C)S(=O)(=O)NCc1[nH]nc(-c2ccc(F)cc2)c1-c1ccncc1
30 |  | O=C(NCCc1[nH]nc(-c2ccc(F)cc2)c1-c1ccncc1)c1ccc(C(F)(F)F)cc1
3 |  | O=C(NCc1[nH]nc(-c2ccc(F)cc2)c1-c1ccncc1)c1ccncc1
80 |  | C[C@H](NS(=O)(=O)c1cccc2ccccc12)c1[nH]nc(-c2ccc(F)cc2)c1-c1ccncc1
85 |  | Cc1noc(C)c1S(=O)(=O)NCCCc1[nH]nc(-c2ccc(F)cc2)c1-c1ccncc1
